Assay results: patent publication US20140263071A1, “METHOD FOR COLLECTING METALS” (CHEMEC OY AB, priority 2011, published 2014)
Read-outs that look alike come from different tables or passages of the source. Marks after values point to notes of the source that are not given here.

Assays:
[1] = Solubility of the compounds, molybdenum blue method, UV/Vis 880 nm (Example 6); type: physicochemical; details: saturated aqueous solution
Source text: The low solubility is achieved by using long carbon chain(s) or aromatic ring(s) in the bisphosphonate structure I. Advantageously, compound I contains 7-16 carbon atoms either in chain, branched chain or cyclic structure or in combination of these structural units between A and X, and preferably in the chain starting from the P-C-P bridging carbon and the number of heteroatomic functional groups excluding the phosphorous functionalities are limited to two or three groups. The solubility decreases even more if compound I contains functional groups which are capable to form twitter ions with each other. Typical examples of twitter ions are acids (e.g., —CO2H or —PO3H2) and bases (amines) in the same molecule. Solubilities of selected bisphosphonate compounds I were determined with UV/Vis spectrophotometer at 880 nm using molybdenum blue method (Finnish Standard Association SFS 3026: Determination of phosphate in water. Finnish Standard Association SFS, Helsinki Finland, 1986).
Solubilities of selected compounds were determined with UV/Vis Spectrophotometer at 880 nm using molybdenum blue method from saturated aqueous samples solutions (Finnish Standard Association SFS 3026: Determination of phosphate in water. Finnish Standard Association SFS, Helsinki Finland, 1986).

[2] = Effect of temperature on expulsion percent, Pb^2+ spiked TS 5, 1a 1.0 g/100 ml, 24 h (Example 12)
Protocol: (§1) A test solution containing 1-15 mg/l of Al^3+, Fe^2/3+, Mg^2+, Mn^2+, Ni^2+ and Zn^2+; 0.1-0.9 mg/l of Ca^2+ and Na^+; and trace amount of other Cr^3+, Co^2+, Cu^2+, Eu^3+, La^3+, Nd^3+, Y^3+, UO2^2+ and Nb^5+ cations were prepared.
Effect of temperature to selected metal expulsion per cents was tested using TS 5 with comlexation agent 1a. TS 5 (100 ml), spiked with known amounts of lead (Pb^2+) cations, was stirred with 1a (1.0 g) at selected temperature for 24 h followed by separation of 1a by filtration trough 0.2 μm syringe filter. Metal concentrations at 4° C., 7° C., 22° C., 30° C., 40° C. and 50° C. were determined by using ICP-AES analysis.

[3] = Collection of gold from TS 5 (Example 21); details: Au^3+ spiked TS 5, pH 3.0, 1a 5 g
Protocol: as §1
TS 5 (100 ml) was spiked with Au^3+ (87.7 mg/ml) Merch Titrisol® standard solution. After pH of the mixture was adjusted to 3.0 by HNO3 sample A was taken followed by adding 1a (5 g). The mixture was stirred at room temperature for 24 h and a sample B was taken. Samples A and B were filtrated separately trough 0.2 μm syringe filter and the concentration of selected element in both solution was determined by using ICP-AES method. The expulsion percent for selected elements were determined from the concentration differences between the samples A and B. Results of gold recovery from TS 5 is given in Table 15.

## NCCCCCCCCCCC(O)(P(=O)(O)O)P(=O)(O)O [Compound 1a, 11-Amino-1-hydroxyundecane-1,1-diyldiphosphonic acid]
[1]
  solubility: 59 mg/L
[1]; read-out: mg/l P (solubility calculated as elemental phosphorus)
  solubility: 10 mg/L
[2]; Al^3+, 4° C.
  Expulsion [%]: 6.3%
[2]; Al^3+, 7° C.
  Expulsion [%]: 15.4%
[2]; Al^3+, 22° C.
  Expulsion [%]: 18.5%
[2]; Al^3+, 30° C.
  Expulsion [%]: 14.6%
[2]; Al^3+, 40° C.
  Expulsion [%]: 98.0%
[2]; Al^3+, 50° C.
  Expulsion [%]: 97.6%
[2]; Ca^2+, 4° C.
  Expulsion [%]: 0.0%
[2]; Ca^2+, 7° C.
  Expulsion [%]: 0.0%
[2]; Ca^2+, 22° C.
  Expulsion [%]: 9.4%
[2]; Ca^2+, 30° C.
  Expulsion [%]: 10.0%
[2]; Ca^2+, 40° C.
  Expulsion [%]: 63.5%
[2]; Ca^2+, 50° C.
  Expulsion [%]: 71.2%
[2]; Cd^2+, 4° C.
  Expulsion [%]: 16.1%
[2]; Cd^2+, 7° C.
  Expulsion [%]: 18.3%
[2]; Cd^2+, 22° C.
  Expulsion [%]: 34.5%
[2]; Cd^2+, 30° C.
  Expulsion [%]: 41.3%
[2]; Cd^2+, 40° C.
  Expulsion [%]: 99.0%
[2]; Cd^2+, 50° C.
  Expulsion [%]: 98.9%
[2]; Fe^2/3+, 4° C.
  Expulsion [%]: 0.0%
[2]; Fe^2/3+, 7° C.
  Expulsion [%]: 0.7%
[2]; Fe^2/3+, 22° C.
  Expulsion [%]: 5.2%
[2]; Fe^2/3+, 30° C.
  Expulsion [%]: 4.4%
[2]; Fe^2/3+, 40° C.
  Expulsion [%]: 99.3%
[2]; Fe^2/3+, 50° C.
  Expulsion [%]: ≥ 99.3^1%
[2]; Mg^2+, 4° C.
  Expulsion [%]: 0.7%
[2]; Mg^2+, 7° C.
  Expulsion [%]: 0.7%
[2]; Mg^2+, 22° C.
  Expulsion [%]: 7.1%
[2]; Mg^2+, 30° C.
  Expulsion [%]: 5.5%
[2]; Mg^2+, 40° C.
  Expulsion [%]: ≥ 97.7^1%
[2]; Mg^2+, 50° C.
  Expulsion [%]: ≥ 97.7^1%
[2]; Mn^2+, 4° C.
  Expulsion [%]: 4.6%
[2]; Mn^2+, 7° C.
  Expulsion [%]: 5.3%
[2]; Mn^2+, 22° C.
  Expulsion [%]: 14.7%
[2]; Mn^2+, 30° C.
  Expulsion [%]: 13.3%
[2]; Mn^2+, 40° C.
  Expulsion [%]: ≥ 99.7^1%
[2]; Mn^2+, 50° C.
  Expulsion [%]: ≥ 99.7^1%
[2]; Ni^2+, 4° C.
  Expulsion [%]: 0.9%
[2]; Ni^2+, 7° C.
  Expulsion [%]: 1.4%
[2]; Ni^2+, 22° C.
  Expulsion [%]: 4.6%
[2]; Ni^2+, 30° C.
  Expulsion [%]: 4.6%
[2]; Ni^2+, 40° C.
  Expulsion [%]: 97.1%
[2]; Ni^2+, 50° C.
  Expulsion [%]: 95.2%
[2]; Pb^2+, 4° C.
  Expulsion [%]: ≥ 98.1^1%
[2]; Pb^2+, 7° C.
  Expulsion [%]: ≥ 98.1^1%
[2]; Pb^2+, 22° C.
  Expulsion [%]: ≥ 98.1^1%
[2]; Pb^2+, 30° C.
  Expulsion [%]: ≥ 98.1^1%
[2]; Pb^2+, 40° C.
  Expulsion [%]: ≥ 98.1^1%
[2]; Pb^2+, 50° C.
  Expulsion [%]: ≥ 98.1^1%
[2]; Zn^2+, 4° C.
  Expulsion [%]: 9.0%
[2]; Zn^2+, 7° C.
  Expulsion [%]: 10.4%
[2]; Zn^2+, 22° C.
  Expulsion [%]: 22.9%
[2]; Zn^2+, 30° C.
  Expulsion [%]: 25.7%
[2]; Zn^2+, 40° C.
  Expulsion [%]: 97.6%
[2]; Zn^2+, 50° C.
  Expulsion [%]: 98.0%
[3]; Al^3+
  Expulsion [%]: 87.9%
[3]; Au^3+
  Expulsion [%]: 65.0^1) %
[3]; Cr^3+
  Expulsion [%]: 2.6%
[3]; Fe^2/3+
  Expulsion [%]: ≥ 96.6^2) %
[3]; Mg^2+
  Expulsion [%]: 0%
[3]; Mn^2+
  Expulsion [%]: 0%
[3]; Ni^2+
  Expulsion [%]: 1.3%
[3]; Zn^2+
  Expulsion [%]: 1.4%
